These results are taken from patent US8916599B2, “1H-benz imidazole-5-carboxamides as anti-inflammatory agents” (Orexo AB, priority 2008, dated 2014).

The target in the first experiment is T1, recombinant human mPGES-1 (Homo sapiens, UniProt O14684).
T1 construct: made in house; host or cells: Rosetta E. coli (microsomal/membrane fraction)
T1 sequence (O14684 1-152): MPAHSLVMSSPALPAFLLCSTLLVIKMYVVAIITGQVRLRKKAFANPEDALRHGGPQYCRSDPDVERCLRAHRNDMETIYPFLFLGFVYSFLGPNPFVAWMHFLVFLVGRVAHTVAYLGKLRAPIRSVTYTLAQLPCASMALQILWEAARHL
Briefly: mPGES-1 inhibition test (microsomes, PGH2 substrate, HTRF detection of PGE2). The class given is biochemical. Conditions: inhibition of mPGES-1 at 1 μM (marked in cell). The method in brief: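 E. coli microsomal enzyme, 0.1 M KPi pH 7.4 + 2.5 mM GSH; cpd (DMSO) 25 min RT; PGH2 1 min; acidic FeCl2 stop. Dilute 750-fold, HTRF (d2/Eu-cryptate anti-PGE2, overnight 4 °C), 665/620 ratio vs PGE2 standard curve.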
As to `COc1cc2c(cc1C(=O)N[C@H]1CC[C@H](C(F)(F)F)CC1)nc(Nc1c(Cl)ccc(C)c1F)n2C` [Example 647, 2-(6-Chloro-2-fluoro-3-methyl-phenylamino)-6-methoxy-N-(trans-4-trifluoromethyl-cyclohex-1-yl)-1-methyl-1H-benzimidazole-5-carboxamide], the inhibition at 1 µM is 97%.

The same experiment, now with this note: inhibition of mPGES-1 at 10 μM.
For the molecule `CCc1ccc(C)nc1NC(=O)c1ccc2c(c1)nc(Nc1c(Cl)cccc1Cl)n2C` [Example 545, 2-(2,6-Dichlorophenylamino)-N-(3-ethyl-6-methylpyridin-2-yl)-1-methyl-1H-benzimidazole-5-carboxamide], the inhibition at 10 µM turned out to be 89%. Same read-out and setting: to `O=C(NCc1ncccc1C(F)(F)F)c1ccc2[nH]c(Nc3c(Cl)cccc3Cl)nc2c1` [Example 220, 2-(2,6-Dichloro-phenylamino)-1H-benzimidazole-5-carboxylic acid (3-trifluoromethyl-pyridin-2-ylmethyl)-amide] belongs 96%. On to `CCOc1cc2[nH]c(Nc3c(Cl)ccc(Cl)c3F)nc2cc1C(=O)Nc1cccc(Cl)c1` [Example 603, 2-(3,6-Dichloro-2-fluoro-phenylamino)-N-(3-chloro-phenyl)-6-ethoxy-1H-benzimidazole-5-carboxamide], for which the inhibition at 10 µM came to 90%. `COc1cc2c(cc1C(=O)NCc1ncccc1C(F)(F)F)nc(Nc1c(Cl)cccc1Cl)n2C` [Example 370, 2-(2,6-Dichlorophenylamino)-6-methoxy-1-methyl-N-((3-trifluoromethyl-pyridin-2-yl)methyl)-1H-benzimidazole-5-carboxamide]: the inhibition at 10 µM worked out at 100%.

As to `Cn1c(Nc2c(Cl)cccc2Cl)nc2cc(C(=O)NC3COc4ccccc4C3)c(F)cc21` (stereo not shown) [Example 160, 2-(2,6-Dichloro-phenylamino)-6-fluoro-1-methyl-1H-benzimidazole-5-carboxylic acid chroman-3-ylamide], the inhibition at 10 µM stood at 98%.

Consider `Cn1c(Nc2ccc(F)cc2C(F)(F)F)nc2cc(C(=O)Nc3ccc(Br)cc3)ccc21` [Example 385, N-(4-Bromophenyl)-2-(4-fluoro-2-trifluoromethyl-phenylamino)-1-methyl-1H-benzimidazole-5-carboxamide], for which the inhibition at 10 µM came out at 99%.

Turning to `CCc1ccnc(NC(=O)c2ccc3[nH]c(Nc4c(Cl)cccc4Cl)nc3c2)c1` [Example 120, 2-(2,6-Dichloro-phenylamino)-1H-benzimidazole-5-carboxylic acid (4-ethyl-pyridin-2-yl)-amide], the inhibition at 10 µM was 96%.

As for `O=C(NC1CCC(C(F)(F)F)CC1)c1ccc2[nH]c(Nc3c(Cl)cccc3Cl)nc2c1` (stereo not shown) [Example 230, 2-(2,6-Dichloro-phenylamino)-1H-benzimidazole-5-carboxylic acid (4-trifluoromethyl-cyclohexyl)-amide], the inhibition at 10 µM was found to be 99%.

As for `N#CC1(NC(=O)c2ccc3[nH]c(Nc4c(Cl)cccc4Cl)nc3c2)CCCCC1` [Example 231, 2-(2,6-Dichloro-phenylamino)-1H-benzimidazole-5-carboxylic acid (1-cyano-cyclohexyl)-amide], the inhibition at 10 µM is 86%. With `O=C(Nc1ccc(Br)cc1)c1cc2[nH]c(Nc3c(Cl)cccc3Cl)nc2c(F)c1F` [Example 395, N-(4-Bromophenyl)-2-(2,6-dichlorophenylamino)-4,5-difluoro-1H-benzimidazole-6-carboxamide], the inhibition at 10 µM came to 100%.

In the case of `Cc1nc(NC(=O)c2cc3nc(Nc4c(Cl)cccc4Cl)n(C)c3cc2F)cc2c1CCCC2` [Example 131, 2-(2,6-Dichloro-phenylamino)-6-fluoro-1-methyl-1H-benzimidazole-5-carboxylic acid (1-methyl-5,6,7,8-tetrahydro-isoquinolin-3-yl)-amide], the inhibition at 10 µM came to 96%.

As for `O=C(Nc1cc(C(F)(F)F)ccc1Cl)c1ccc2[nH]c(Nc3c(Cl)cccc3Cl)nc2c1` [Example 292, 2-(2,6-Dichloro-phenylamino)-1H-benzimidazole-5-carboxylic acid (2-chloro-5-trifluoromethyl-phenyl)-amide], the inhibition at 10 µM was determined as 100%.

`Cn1c(Nc2ccc(C(N)=O)cc2Cl)nc2cc(C(=O)Nc3ccc(Br)cc3)ccc21` [Example 543, N-(4-Bromophenyl)-2-(4-carbamoyl-2-chlorophenylamino)-1-methyl-1H-benzimidazole-5-carboxamide]: the inhibition at 10 µM is 91%. With `Cn1c(Nc2c(Cl)cccc2Cl)nc2cc(C(=O)Nc3cc(Cl)ccn3)c(F)cc21` [Example 129, 2-(2,6-Dichloro-phenylamino)-6-fluoro-1-methyl-1H-benzimidazole-5-carboxylic acid (4-chloro-pyridin-2-yl)-amide], the inhibition at 10 µM came out at 92%.

Consider `COc1cc2[nH]c(Nc3c(Cl)ccc(Cl)c3F)nc2cc1C(=O)NC1CCC2(CC1)CC2` [Example 613, 2-(3,6-Dichloro-2-fluoro-phenylamino)-N-(spiro[2.5]oct-6-yl)-6-methoxy-1H-benzimidazole-5-carboxamide], for which the inhibition at 10 µM turned out to be 91%. For `COc1cc2nc(Nc3c(Cl)cccc3Cl)[nH]c2cc1C(=O)NCc1ccccc1C(F)(F)F` [Example 200], the inhibition at 10 µM turned out to be 98%.

On to `COc1cc2c(cc1C(=O)NCc1ncccc1C1CC1)nc(Nc1c(Cl)cccc1Cl)n2C` [Example 367, N-((3-Cyclopropylpyridin-2-yl)-methyl)-2-(2,6-dichlorophenylamino)-6-methoxy-1-methyl-1H-benzimidazole-5-carboxamide], for which the inhibition at 10 µM amounted to 100%. Regarding `CNCCCn1c(Nc2c(Cl)cccc2Cl)nc2cc(C(=O)Nc3cc(Cl)ccn3)ccc21` [Example 266, 2-(2,6-Dichloro-phenylamino)-1-(3-methylamino-propyl)-1H-benzimidazole-5-carboxylic acid (4-chloro-pyridin-2-yl)-amide], the inhibition at 10 µM was 100%.

For the molecule `COCCn1c(Nc2c(Cl)cccc2Cl)nc2cc(C(=O)NC3CCC(C)(C)CC3)ccc21` [Example 180, 2-(2,6-Dichloro-phenylamino)-1-(2-methoxy-ethyl)-1H-benzimidazole-5-carboxylic acid (4,4-dimethyl-cyclohexyl)-amide], the inhibition at 10 µM came to 98%. As to `Cc1nc(NC(=O)c2ccc3[nH]c(Nc4c(Cl)cccc4Cl)nc3c2)ccc1Br` [Example 76, 2-(2,6-Dichloro-phenylamino)-1H-benzimidazole-5-carboxylic acid (5-bromo-6-methyl-pyridin-2-yl)-amide], the inhibition at 10 µM turned out to be 97%. Consider `O=C(Nc1cc(Br)ccn1)c1ccc2[nH]c(Nc3c(Cl)cccc3Cl)nc2c1` [Example 184, 2-(2,6-Dichloro-phenylamino)-1H-benzimidazole-5-carboxylic acid (4-bromo-pyridin-2-yl)-amide], for which the inhibition at 10 µM was determined as 98%. Regarding `COc1cc2[nH]c(Nc3c(Cl)ccc(Cl)c3F)nc2cc1C(=O)Nc1ccc(Br)cc1` [Example 602, 2-(3,6-Dichloro-2-fluoro-phenylamino)-6-methoxy-N-(4-bromophenyl)-1H-benzimidazole-5-carboxamide], the inhibition at 10 µM was 100%. `Cn1c(Nc2c(Cl)cccc2Cl)nc2cc(C(=O)NC3CCCC(C(F)(F)F)C3)ccc21` (stereo not shown) [Example 255, 2-(2,6-Dichloro-phenylamino)-1-methyl-1H-benzimidazole-5-carboxylic acid (3-trifluoromethyl-cyclohexyl)-amide]: the inhibition at 10 µM was 100%. In the case of `Cn1c(Nc2c(Cl)ccc(Cl)c2F)nc2cc(C(=O)NC3CCC4(CC3)CC4)c(F)cc21` [Example 606, 2-(3,6-Dichloro-2-fluoro-phenylamino)-6-fluoro-N-(spiro[2.5]oct-6-yl)-1-methyl-1H-benzimidazole-5-carboxamide], the inhibition at 10 µM is 94%. On the same count and under the same terms, to `Cn1c(Nc2c(Cl)ccc(Cl)c2F)nc2cc(C(=O)N[C@H]3CC[C@H](C(F)(F)F)CC3)c(F)cc21` [Example 601, 2-(3,6-Dichloro-2-fluoro-phenylamino)-6-fluoro-N-(trans-4-trifluoromethyl-cyclohex-1-yl)-1-methyl-1H-benzimidazole-5-carboxamide] belongs 92%; to `CNC(=O)c1ccc(Cl)c(Nc2nc3cc(C(=O)Nc4ccc(Br)cc4)ccc3n2C)c1` [Example 574, N-(4-Bromophenyl)-2-(2-chloro-5-(methylcarbamoyl)-phenylamino)-1-methyl-1H-benzimidazole-5-carboxamide], 56%; to `O=C(NC1CCC2(CC1)CC2)c1cc2nc(Nc3c(Cl)cccc3Cl)[nH]c2cc1F` [Example 387, 2-(2,6-Dichlorophenylamino)-6-fluoro-N-(spiro[2.5]octan-6-yl)-1H-benzimidazole-5-carboxamide], 100%.

On to `COc1cc2c(cc1C(=O)NCc1ncccc1OC)nc(Nc1c(Cl)cccc1Cl)n2C` [Example 491, 2-(2,6-Dichlorophenylamino)-6-methoxy-N-((3-methoxypyridin-2-yl)-methyl)-1-methyl-1H-benzimidazole-5-carboxamide], for which the inhibition at 10 µM was 99%.

For `Cn1c(Nc2ccccc2OC(F)(F)F)nc2cc(C(=O)Nc3ccc(Br)cc3)ccc21` [Example 320, 1-Methyl-2-(2-trifluoromethoxy-phenylamino)-1H-benzimidazole-5-carboxylic acid (4-bromo-phenyl)-amide], the inhibition at 10 µM turned out to be 100%. As to `CCOc1cc2c(cc1C(=O)NC1CCC3(CC1)CC3)nc(Nc1c(Cl)ccc(Cl)c1F)n2C` [Example 609, 2-(3,6-Dichloro-2-fluoro-phenylamino)-6-ethoxy-N-(spiro[2.5]oct-6-yl)-1-methyl-1H-benzimidazole-5-carboxamide], the inhibition at 10 µM amounted to 99%.
